This is an account of results in US20230303539A1, “IMMUNOREGULATORY COMPOUND AND ANTITUMOR APPLICATION THEREOF” (SHANGHAITECH UNIVERSITY, priority 2020, published 2023).

Test [1] deals with human mantle cell lymphoma cell line Mino. Kind of test: Cell proliferation inhibition (CCK-8) in Mino. The test is classed as cell-based. As to conditions: MINO cells, 72 h treatment, read-out: IC50 (half inhibitory concentration) in tumor cells, MINO. An excerpt: (§1) The tested cell lines used were: Multiple myeloma cell line MM.1S, human Burkitt's lymphoma cell line Daudi, human acute promyelocytic leukemia cell line NB4, human mantle cell lymphoma cell line JEKO-1, human B-cell lymphoma cell line SU-DHL-4, human mantle cell lymphoma cell line Mino, human diffuse large B-cell lymphoma cell line TMD8, human B-cell lymphoma cell line DOHH2, PBMCs cell and human diffuse large B-cell lymphoma cell line WSU-DLCL2, which were purchased from ATCC (American type Culture Collection) or Cell Bank/Stem Cell Bank, Chinese Academy of Sciences. The medium was RPMI1640 supplemented with 10% FBS (fetal calf serum) and 1% Penicillin-Streptomycin. […]
(§2) IC50 values of the compounds of the present disclosure (including the compounds in Table 1 and compounds of examples 1-23) were measured using Cell Titer Blue, Cell Titer GLO, or WST reagent from Promega Company. […] After the cells were treated with the compounds of the present disclosure to be tested for 72 h, cell viability was determined after adding the cell viability detection kit listed above according to the reagent operating instructions. […] The growth inhibition of the compounds of the present disclosure on cells was plotted by Prism Graphpad software, and the IC50 values of the compounds of the present disclosure were calculated therefrom. […]

The subject of test [2] is IKZF1/3. The test is described as follows: IKZF protein degradation, western blotting assay in SU-DHL-4. In kind it is cell-based, human. As to conditions: SU-DHL-4, western blotting, dose-dependent; FIGS. 4-5. How it is done: (§3) Most antibodies were purchased from Cell Signaling Technology, including IKZF1 (#9034S), IKZF3(#15103S), CK1α(#ab108296). GAPDH antibody was purchased from Abcam Company. Tumor cells were plated in a 24-well plate at a cell seeding density of 3×10^5 cells/mL, with 1 mL culture media per well. After 24 h, the cells were treated with different concentrations of the compounds of the present disclosure. After 16 hours, the cells were collected, and washed with PBS. The supernatant was discarded, and the cells were placed on ice, and treated with RIPA protein lysate containing Halt protease and phosphatase inhibitor. The lysate was centrifuged at 10000 RPM at 4° C. for 10 minutes, and the supernatant was collected. An equal amount of proteins were loaded in 4×SDS sample solution, denatured at 95° C. for 5 minutes, and then freezed to -20° C. or directly subjected to protein electrophoresis (4-15% gradient gel, Bio-rad). […] DC50 value (the drug concentration required for degrading proteins by 50%, abbreviated as DC50) reads method: comparing the gray values of the Western blotting bands for the drug treatment with the gray values of the Western blotting band for the DMSO control, and reading the drug concentration range corresponding to the gray value of the Western blotting bands for the drug treatment which is equal to half of the gray value of the Western blotting band for the DMSO control. […]
In general terms: In western blotting, separated proteins are transferred to a membrane and probed.

The test system of test [3] is human B-cell lymphoma cell line DOHH2. Kind of test: Cell proliferation inhibition (CCK-8) in DOHH2. As to conditions: DOHH-2, DOHH2 cells, 72 h treatment, read-out: IC50 (half inhibitory concentration) in tumor cells, DOHH2. The test is classed as cell-based.
Description: as §1, §2

A further test relates to B lymphoma cells Daudi. Kind of test: Cell proliferation inhibition (cell viability, CCK-8) in Daudi. The test is classed as cell-based. As to conditions: Homo sapiens, 72 h treatment, CCK-8 cell viability. An excerpt:
(§4) The tested cell lines used were: Multiple myeloma cell line MM.1S, human Burkitt's lymphoma cell line Daudi, human acute promyelocytic leukemia cell line NB4, human mantle cell lymphoma cell line JEKO-1, human B-cell lymphoma cell line SU-DHL-4, human mantle cell lymphoma cell line Mino, human diffuse large B-cell lymphoma cell line TMD8, human B-cell lymphoma cell line DOHH2, PBMCs cell and human diffuse large B-cell lymphoma cell line WSU-DLCL2, which were purchased from ATCC (American type Culture Collection) or Cell Bank/Stem Cell Bank, Chinese Academy of Sciences. The medium was RPMI1640 supplemented with 10% FBS (fetal calf serum) and 1% Penicillin-Streptomycin. The cells used were identified as correct cells by STR cells, and were negative for mycoplasma through routine inspections.
(§5) IC50 values of the compounds of the present disclosure (including the compounds in Table 1 and compounds of examples 1-23) were measured using Cell Titer Blue, Cell Titer GLO, or WST reagent from Promega Company. Assay details are as follows: Cells were seeded in 100 μL RPMI1640 medium containing serum at a density of 15,000 cells/well. After 24 h, the inoculated cells were treated with diluted commercial inhibitor and the compounds of the present disclosure to be tested after serial dilution. After the cells were treated with the compounds of the present disclosure to be tested for 72 h, cell viability was determined after adding the cell viability detection kit listed above according to the reagent operating instructions. The negative control was DMSO, and the positive control was a commercial inhibitor, both of which were used to treat the cells through the same method as that of the compounds of the present disclosure. The growth inhibition of the compounds of the present disclosure on cells was plotted by Prism Graphpad software, and the IC50 values of the compounds of the present disclosure were calculated therefrom.
(§6) We tested the activities of the compounds of the present invention (including the compounds in Table 1 and Examples 1-23 compounds) in multiple myeloma cancer cells MM.1S cell and B lymphoma cells Daudi through a dose-dependent manner. The cells were treated with the compounds of the present invention at 10 different successively decreasing concentrations (starting at the highest concentration of […]; 5-fold serial dilutions) for 72 h, and then the cell viability determination was performed in accordance with CCK-8 reagent operating instructions.

The test system of test [4] is human mantle cell lymphoma cell line JEKO-1. Kind of test: Cell proliferation inhibition (CCK-8) in JEKO-1. The test is classed as cell-based. As to conditions: JEKO-1 cells, 72 h treatment, FIG. 3.
Description: as §1, §2

Test [5] relates to multiple myeloma cancer cells MM.1S. Kind of test: Cell proliferation inhibition (cell viability, CCK-8) in MM.1S. In kind it is cell-based. The settings on record: Homo sapiens, MM1.S; MM.1S cells, 72 h treatment, CCK-8 cell viability.
Description: as §4, §5, §6

Test [6] deals with human diffuse large B-cell lymphoma cell line TMD8. Kind of test: Cell proliferation inhibition (CCK-8) in TMD8. The settings on record: TMD8 cells, 72 h treatment, read-out: IC50 (half inhibitory concentration) in tumor cells, TMD8. In kind it is cell-based.
Description: as §1, §2

In test [7] the test system is human B-cell lymphoma cell line SU-DHL-4. Kind of test: Cell proliferation inhibition (CCK-8) in SU-DHL-4. As to conditions: SU-DHL-4 cells, 72 h treatment, FIG. 3. In kind it is cell-based.
Description: as §1, §2

Test [8] has as its system IKZF1/3. Kind of test: IKZF protein degradation, western blotting assay in WSU-DLCL2. As to conditions: dose-dependent, FIGS. 4-5. The test is classed as cell-based, human. How it is done: as §3
The test system of test [9] is human diffuse large B-cell lymphoma cell line WSU-DLCL2. The test is described as follows: Cell proliferation inhibition (CCK-8) in WSU-DLCL2. In kind it is cell-based. As to conditions: WSUDLCL2, WSU-DLCL2 cells, 72 h treatment, read-out: IC50 (half inhibitory concentration) in tumor cells, WSU-DLCL2.
Description: as §1, §2

Turning to `Cc1nc2cccc(NCc3ccc(CN4CCCCCC4)cc3F)c2c(=O)n1C1CCC(=O)NC1=O` (stereo not shown) [SIAIS355035, 3-(5-((4-(azepan-1-ylmethyl)-2-fluorobenzyl)amino)-2-methyl-4-oxoquinazolin-3(4H)-yl)piperidine-2,6-dione], the IC50 turned out to be 5.05 nM in [1]; 307 nM in [3]; 12.9 ± 3.87 nM in the test on B lymphoma cells Daudi; 2.62 ± 0.49 nM in test [5]; 103 nM in test [6]; 164 nM in test [9]. The “IKZF1/3 degradation (in words)” value in the test with IKZF1/3 [2] and with IKZF1/3 [8] was “can significantly degrade IKZF1/3 at effective concentration significantly lower than that of CC-122” each time. In addition, the “inhibition of JEKO-1 cell line (in words)” value in test [4] was “significantly stronger inhibitory effects as compared with CC-122 and lenalidomide”. For the same compound, in [7], the “inhibition of SU-DHL-4 cell line (in words)” value was “significantly stronger inhibitory effects as compared with CC-122 and lenalidomide”.
